Test results reported in PMC8226839, “New Perspectives in the Antimicrobial Activity of the Amphibian Temporin B: Peptide Analogs Are Effective Inhibitors of Candida albicans Growth” (Journal of Fungi, 2021).
Square brackets hold non-standard residues; d marks the D form. Peptide text beside a SMILES is read from it.

Test system: sheep erythrocytes
Conditions: 50 μg per disk, Columbia blood agar plates, 37 °C, 24 h

SMILES | hemolysis
CC[C@H](C)[C@H](NC(=O)[C@@H]1CCCN1C(=O)[C@H](CC(C)C)NC(=O)[C@H](CC(C)C)NC(=O)[C@@H](CCCCN)NC(=O)[C@H](N)CCCCN)C(=O)N[C@H](C(=O)N[C@H](CCCCN)C(=O)N[C@@H](CC(N)=O)C(=O)N[C@@H](CC(C)C)C(=O)N[C@@H](CC(C)C)C(=O)N[C@H](CCCCN)C(=O)N[C@@H](CO)C(=O)N[C@@H](CC(C)C)C(=O)N[C@@H](CC(C)C)C(N)=O)C(C)C [D-Lys_TB_KKG6K] (H-[dK][dK]LLPIV[dK]NLL[dK]SLL-NH2) | did not induce the hemolysis
CC[C@H](C)[C@H](NC(=O)[C@@H]1CCCN1C(=O)[C@H](CC(C)C)NC(=O)[C@H](CC(C)C)NC(=O)[C@H](CCCCN)NC(=O)[C@@H](N)CCCCN)C(=O)N[C@H](C(=O)N[C@@H](CCCCN)C(=O)N[C@@H](CC(N)=O)C(=O)N[C@@H](CC(C)C)C(=O)N[C@@H](CC(C)C)C(=O)N[C@@H](CCCCN)C(=O)N[C@@H](CO)C(=O)N[C@@H](CC(C)C)C(=O)N[C@@H](CC(C)C)C(N)=O)C(C)C [TB_KKG6K] (H-KKLLPIVKNLLKSLL-NH2) | did not induce the hemolysis
